Experiment [1] concerns CCRF-CEM. As to the kind of experiment: Inhibitory concentration for spectrum antiviral activity against herpes viruses. Format: functional, cell-based. The settings on record: Homo sapiens.
Another experiment has as its system RPMI-8226. As to the kind of experiment: Test was to evaluate selectivity against individual tumor cell line Leukemia (RPMI-8226). Format: functional. The settings on record: Homo sapiens.
The subject of experiment [2] is CCRF-CEM. In words: Test was to evaluate selectivity against individual tumor cell line Leukemia (CCRF-CEM). Format: functional. The settings on record: Homo sapiens.
A further experiment deals with NCI-H522. In words: Test was to evaluate selectivity against individual tumor cell line Non small cell lung cancer (NCI-H522). The format is functional. The settings on record: Homo sapiens.
The subject of the next experiment is Human alphaherpesvirus 1. As to the kind of experiment: In vitro antiviral activity against Herpes simplex virus (HSV-1) was determined. Format: functional, organism-based.
The test system of another experiment is SF-268. In words: Test was to evaluate selectivity against individual tumor cell line CNS cancer (SF-268). Format: functional. The settings on record: Homo sapiens.
Experiment [3] has as its system M19-MEL. As to the kind of experiment: est was to evaluate selectivity against individual tumor cell line Melanoma (M19-MEL). The format is functional. The settings on record: Homo sapiens.
Another experiment has as its system Human betaherpesvirus 5. As to the kind of experiment: In vitro antiviral activity against Human cytomegalovirus (HCMV) was determined. Format: functional, organism-based.
The test system of another experiment is Human gammaherpesvirus 4. As to the kind of experiment: In vitro antiviral activity against Epstein Barr virus (EBV) was determined. Format: functional, organism-based.
The test system of experiment [4] is SK-MEL-5. In words: est was to evaluate selectivity against individual tumor cell line Melanoma (SK-MEL-5). The settings on record: Homo sapiens. Format: functional.
For another experiment, the system named is Human alphaherpesvirus 2. In words: In vitro antiviral activity against Herpes simplex virus (HSV-2) was determined. Format: functional, organism-based.
Experiment [5] has as its system Malme-3M. As to the kind of experiment: est was to evaluate selectivity against individual tumor cell line Melanoma (MALME-3M). The format is functional. The settings on record: Homo sapiens.
Experiment [6] has as its system CCRF-CEM. As to the kind of experiment: In vitro anti-HIV screen using HIV-1 infected CD4 lymphocytes (CEM cell line), determines cytotoxicity. The settings on record: Homo sapiens. The format is functional, cell-based.
In the next experiment the test system is Tumor Cell line. As to the kind of experiment: Test was to evaluate selectivity against individual tumor cell lines; NS= No selectivity. The format is functional, cell-based. The settings on record: Homo sapiens.
The subject of experiment [7] is SK-MEL-5. As to the kind of experiment: Test was to evaluate selectivity against individual tumor cell lines Melanoma (SK-MEL-5). The format is functional. The settings on record: Homo sapiens.
In the next experiment the test system is DMS-114. As to the kind of experiment: Test was to evaluate selectivity against individual tumor cell lines Small cell lung cancer (DMS114). Format: functional. The settings on record: Homo sapiens.
The test system of experiment [8] is M19-MEL. As to the kind of experiment: Test was to evaluate selectivity against individual tumor cell lines Melanoma (M19-MEL). The format is functional. The settings on record: Homo sapiens.
Experiment [9] concerns Malme-3M. In words: Test was to evaluate selectivity against individual tumor cell lines Melanoma (MALME-3M). The settings on record: Homo sapiens. The format is functional.
Another experiment concerns CAKI-1. In words: Test was to evaluate selectivity against individual tumor cell lines Renal cancer (CAKI-1). The format is functional. The settings on record: Homo sapiens.
Another experiment has as its system Human alphaherpesvirus 3. In words: In vitro antiviral activity against Varicella zoster virus (VZV) was determined. The format is functional, organism-based.

The record followed here is ChEMBL document CHEMBL1135020, “5-Bromo (or chloro)-6-azido-5,6-dihydro-2' -deoxyuridine and -thymidine derivatives with potent antiviral activity” (Bioorg Med Chem Lett, 2002).

Activity calls are given as the source filed them. The calls are words filed in the database; no cut-off is given here.

For the compound `[N-]=[N+]=NC1C(Cl)C(=O)NC(=O)N1[C@H]1C[C@H](O)[C@@H](CO)O1` (some centres undefined), the results for the IC50 with CCRF-CEM [1] and in the experiment on CCRF-CEM [6] were 54.6 µM and > 327 µM, respectively. Moreover, the 50% growth inhibitory concentration (GI50) (usually the concentration giving 50% growth inhibition) in the experiment on RPMI-8226 was 72.4 µM; in the experiment on CCRF-CEM [2], 26.3 µM; in the experiment on NCI-H522, 5.37 µM; in the experiment with SF-268, 93.3 µM; in the experiment with M19-MEL [3], 52.4 µM; in the experiment with SK-MEL-5 [4], 12.3 µM. The compound also had a GI50 in the experiment on Malme-3M [5] of 13.1 µM. The EC50 (usually the concentration needed to bring the measured effect to its halfway point) is 0.33 µM with Human alphaherpesvirus 1, 28.9 µM in the experiment with Human betaherpesvirus 5, 9.8 µM in the experiment with Human gammaherpesvirus 4 and 1.6 µM with Human alphaherpesvirus 2.

`Nc1nc2c(ncn2COC(CO)CO)c(=O)[nH]1` [GANCICLOVIR] came in with an EC50 with Human betaherpesvirus 5 of 0.78 µM. In addition, the IC50 (as a rule, the concentration at which inhibition is half-maximal) with CCRF-CEM [6] is > 390 µM.

Compound `O=c1[nH]c(=O)n([C@H]2C[C@H](O)[C@@H](CO)O2)cc1Cl` [CHLORODEOXYURIDINE] yielded an EC50 in the experiment on Human alphaherpesvirus 1 of 15 µM.

In the case of `CC1(Cl)C(=O)NC(=O)N([C@H]2C[C@H](O)[C@@H](CO)O2)C1N=[N+]=[N-]` (some centres undefined), the IC50 in the experiment on CCRF-CEM [1] stood at 135 µM; in the experiment on CCRF-CEM [6], 113 µM. Moreover, the outcome with Tumor Cell line was inactive. For the same compound, the EC50 is > 313 µM with Human alphaherpesvirus 1, > 50 µM in the experiment on Human betaherpesvirus 5, > 12.5 µM with Human gammaherpesvirus 4 and > 313 µM in the experiment on Human alphaherpesvirus 2.

Regarding `[N-]=[N+]=NC1C(Br)C(=O)NC(=O)N1[C@H]1C[C@H](O)[C@@H](CO)O1` (some centres undefined), the IC50 with CCRF-CEM [1] is 7.4 µM; in the experiment with CCRF-CEM [6], 127 µM. Also, the GI50 in the experiment on RPMI-8226 was 19.6 µM; in the experiment on CCRF-CEM [2], 38 µM; in the experiment on SK-MEL-5 [7], 42.2 µM; in the experiment on DMS-114, 90.9 µM; in the experiment with M19-MEL [8], 91.5 µM; in the experiment with Malme-3M [9] it was 15.5 µM. This compound also had a GI50 with CAKI-1 of 66.3 µM. Moreover, the EC50 in the experiment with Human alphaherpesvirus 1 stood at 8.28 µM; in the experiment with Human betaherpesvirus 5, 11.4 µM; in the experiment with Human gammaherpesvirus 4, 46 µM; in the experiment on Human alphaherpesvirus 2, 3.42 µM; in the experiment with Human alphaherpesvirus 3 it was 91.4 µM.

Turning to `Nc1nc2c(ncn2COCCO)c(=O)[nH]1` [ACYCLOVIR], the 50% effective concentration (EC50) is 3.08 µM in the experiment with Human alphaherpesvirus 1, 3.96 µM with Human gammaherpesvirus 4 and 6.16 µM with Human alphaherpesvirus 2. In addition, the IC50 with CCRF-CEM [6] is > 440 µM.

Regarding `CC1(Br)C(=O)NC(=O)N([C@H]2C[C@H](O)[C@@H](CO)O2)C1N=[N+]=[N-]` (some centres undefined), the IC50 with CCRF-CEM [1] amounted to 143 µM; with CCRF-CEM [6] it was 73 µM. The result in the experiment on Tumor Cell line was inactive. Moreover, the EC50 with Human alphaherpesvirus 1 was > 274 µM; with Human betaherpesvirus 5, 15 µM; with Human gammaherpesvirus 4, 16 µM; with Human alphaherpesvirus 2 it was > 274 µM; in the experiment with Human alphaherpesvirus 3, 104 µM.
